According to patent publication US6046238A, “Method for treating or preventing the spread of acne vulgaris” (TriStrata, Inc., priority 1999, dated 2000):

Test system: ten different species of bacteria
Assay: MIC Agar Dilution Test, panel of ten bacteria
Format: cell-based
Conditions: with or without 10% lipid materials
Excerpt: The following strains of microorganisms were used in Minimum Inhibitory Concentration (MIC) tests for phenyl 2-acetoxyethanoic acid in this example and for benzoyl peroxide, chlorhexidine gluconate and triclosan in the following examples. In total, five strains were used for S. aureus, five strains were used for S. epidermidis, two strains were used for M. sedentarius, three strains were used for M. luteus, two strains were used for B. epidermis, three strains were used for C. minutissium, one strain was used for S. marcescens, three strains were used for P. aeruginosa, four strains were used for E. coli, and thirty-two strains were used for P. acnes.
Antimicrobial effects were determined based on MIC Agar Dilution Test utilizing Trypticase Soy Agar II (BBL) incorporation plates with and without 10% intralipid (Kabi Pharmacia Inc.). Initially, phenyl 2-acetoxyethanoic acid was prepared as a 2 mg/ml (0.2%) solution in water. This solution with serial dilution was incorporated into the test agar plates. The MIC test gave similar results when the same species but a different strain was used.
Under the same test conditions described in Example 1, benzoyl peroxide was prepared as a 2.5 mg/ml (0.25%) solution in water. This solution with serial dilution was incorporated into the test agar plates. Typical test results are shown as follows.
Under the same test conditions described in Example 1, chlorhexidine gluconate was prepared as a 2 mg/ml (0.2%) solution in water. This solution with serial dilution was incorporated into the test agar plates. Typical test results are shown as follows.
Under the same test conditions described in Example 1, triclosan was prepared as a 10 mg/ml (1%) solution in water. This solution with serial dilution was incorporated into the test agar plates. Typical test results are shown as follows.
In order to determine the antimicrobial effect of an aryl 2-acetoxyethanoicacid, a standard test method of Minimum Inhibitory Concentration (MIC) against the growth of 10 bacteria was used. To determine a prophylactic effect against the development of, as well as a topical effect in the treatment of, body foul door, eleven human subjects participated in this study. More than twenty human subjects participated in a study to determine whether the compositions containing an aryl 2-acetoxyethanoic acid were therapeutically effective for topical treatment of folliculitis and other skin lesions, nail infections and mucosal infections caused by microbial infections. Scientific and test results are overviewed as follows.
Ten different species of bacteria were used in Minimum Inhibitory Concentration (MIC) tests. The bacteria include S. aureus, S. epidermidis,M. sedentarius, M. luteus, B. epidermis, C. minutissium, S. marcescens, P. aeruginosa, E. coli, and P. acnes. In addition various sources and strains of these bacteria were also included in the tests, and up to 32 different strains of P. acnes were used.
The test substance selected from phenyl 2-acetoxyethanoic acid, benzoyl peroxide, chlorhexidine gluconate and triclosan was dissolved in water, and the solution with serial dilution was incorporated into the test agar plates. The plates containing different concentrations of test substance were inoculated with a strain of bacterium. MIC is defined as the lowest concentration of the test substance in the plate in which there is no growth of the microorganism.

CC(=O)OC(C(=O)O)c1ccccc1 (centres unmarked) [phenyl 2-acetoxyethanoic acid] was tested, and the “inhibitory effects against the growth of all ten bacteria” value was “had inhibitory effects against all of the above bacteria” and the “inhibitory effects against the growth of all ten bacteria” value (listed as Phenyl 2-acetoxyethanoic acid) was “showed inhibitory effects against the growth of all ten bacteria tested”.
